{"source": "ChEMBL document CHEMBL5113521", "about": "“Discovery of a Novel Oral Proteasome Inhibitor to Block NLRP3 Inflammasome Activation with Anti-inflammation Activity” (J Med Chem, 2022)", "key": {"Mus musculus [1]": {"tested_on": "Mus musculus", "assay": "Protection against DSS-induced acute colitis in C57BL/6 mouse model assessed as improvement in inflammatory cell infiltration at 0.125 to 0.5 mg/kg, po administered for 10 days by Hematoxylin and eosin staining based analysis", "assay_type": "functional, organism-based", "conditions": "dose 0.125-0.5 mg/kg, time 10.0 day"}, "J774.A1 [2]": {"tested_on": "J774.A1", "assay": "Inhibition of NF-kappaB in LPS treated mouse J774.A1 cells assessed as reduction in p65 level at 60 nM incubated for 1 hr followed by LPS stimulation measured after 5 hrs by Western blot analysis", "assay_type": "cell-based", "conditions": "time 6.0 hrs"}, "Mus musculus [3]": {"tested_on": "Mus musculus", "assay": "Anti-colitis activity against DSS-induced ulcerative colitis C57BL/6J mouse assessed as reduction in colon length decrease at 0.125 to 0.5 mg/kg, po administered every 72 hrs for 10 days", "assay_type": "functional, organism-based", "conditions": "dose 0.125-0.5 mg/kg, time 10.0 day"}, "[4]": {"molecular_target": "T1, Interferon-inducible protein AIM2 (Mus musculus) (UniProt Q91VJ1)", "T1 sequence (whole entry)": "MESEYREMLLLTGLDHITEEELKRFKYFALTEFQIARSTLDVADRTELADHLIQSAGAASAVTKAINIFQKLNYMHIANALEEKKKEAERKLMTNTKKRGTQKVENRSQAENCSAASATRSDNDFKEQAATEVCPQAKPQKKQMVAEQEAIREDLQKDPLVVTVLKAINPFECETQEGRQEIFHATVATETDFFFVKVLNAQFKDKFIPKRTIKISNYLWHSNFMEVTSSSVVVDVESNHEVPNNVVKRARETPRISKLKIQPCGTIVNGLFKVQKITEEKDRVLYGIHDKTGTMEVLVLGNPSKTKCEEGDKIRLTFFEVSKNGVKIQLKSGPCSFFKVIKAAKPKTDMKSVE", "assay": "Inhibition of AIM2 inflammasome activation in LPS-primed mouse BMDM cells assessed as reduction in IL-1beta secretion at 7.5 to 60 nM preincubated for 1 hr followed by poly (dA/dT) stimulation by ELISA", "assay_type": "cell-based", "conditions": "dose 7.5-60 nM"}, "[5]": {"assay": "Clearance in Sprague-Dawley rat at 0.5 mg/kg, iv measured upto 24 hrs by liquid chromatography tandem mass spectrometry", "assay_type": "ADME, organism-based", "conditions": "in vivo"}, "[6]": {"assay": "Cmax in Sprague-Dawley rat at 0.5 mg/kg, iv measured upto 24 hrs by liquid chromatography tandem mass spectrometry", "assay_type": "ADME, organism-based", "set-up": "time < 24 hrs, dose 0.5 mg/kg, route iv", "conditions": "in vivo"}, "[7]": {"assay": "AUC (0 to infinity) in Sprague-Dawley rat at 1 mg/kg, po measured upto 24 hrs by liquid chromatography tandem mass spectrometry", "assay_type": "ADME, organism-based", "set-up": "dose 1 mg/kg, time < 24 hrs, route po", "conditions": "in vivo"}, "Mus musculus [8]": {"tested_on": "Mus musculus", "assay": "Protection against DSS-induced acute colitis in C57BL/6 mouse model assessed as improvement in loss of crypt architecture at 0.125 to 0.5 mg/kg, po administered for 10 days by Hematoxylin and eosin staining based analysis", "assay_type": "functional, organism-based", "conditions": "dose 0.125-0.5 mg/kg, time 10.0 day"}, "[9]": {"assay": "Tmax in Sprague-Dawley rat at 1 mg/kg, po measured upto 24 hrs by liquid chromatography tandem mass spectrometry", "assay_type": "ADME, organism-based", "conditions": "in vivo"}, "[10]": {"molecular_target": "NACHT, LRR and PYD domains-containing protein 3 (Mus musculus) (UniProt Q8R4B8)", "sequence (Q8R4B8 whole entry, the tested form may be a part)": "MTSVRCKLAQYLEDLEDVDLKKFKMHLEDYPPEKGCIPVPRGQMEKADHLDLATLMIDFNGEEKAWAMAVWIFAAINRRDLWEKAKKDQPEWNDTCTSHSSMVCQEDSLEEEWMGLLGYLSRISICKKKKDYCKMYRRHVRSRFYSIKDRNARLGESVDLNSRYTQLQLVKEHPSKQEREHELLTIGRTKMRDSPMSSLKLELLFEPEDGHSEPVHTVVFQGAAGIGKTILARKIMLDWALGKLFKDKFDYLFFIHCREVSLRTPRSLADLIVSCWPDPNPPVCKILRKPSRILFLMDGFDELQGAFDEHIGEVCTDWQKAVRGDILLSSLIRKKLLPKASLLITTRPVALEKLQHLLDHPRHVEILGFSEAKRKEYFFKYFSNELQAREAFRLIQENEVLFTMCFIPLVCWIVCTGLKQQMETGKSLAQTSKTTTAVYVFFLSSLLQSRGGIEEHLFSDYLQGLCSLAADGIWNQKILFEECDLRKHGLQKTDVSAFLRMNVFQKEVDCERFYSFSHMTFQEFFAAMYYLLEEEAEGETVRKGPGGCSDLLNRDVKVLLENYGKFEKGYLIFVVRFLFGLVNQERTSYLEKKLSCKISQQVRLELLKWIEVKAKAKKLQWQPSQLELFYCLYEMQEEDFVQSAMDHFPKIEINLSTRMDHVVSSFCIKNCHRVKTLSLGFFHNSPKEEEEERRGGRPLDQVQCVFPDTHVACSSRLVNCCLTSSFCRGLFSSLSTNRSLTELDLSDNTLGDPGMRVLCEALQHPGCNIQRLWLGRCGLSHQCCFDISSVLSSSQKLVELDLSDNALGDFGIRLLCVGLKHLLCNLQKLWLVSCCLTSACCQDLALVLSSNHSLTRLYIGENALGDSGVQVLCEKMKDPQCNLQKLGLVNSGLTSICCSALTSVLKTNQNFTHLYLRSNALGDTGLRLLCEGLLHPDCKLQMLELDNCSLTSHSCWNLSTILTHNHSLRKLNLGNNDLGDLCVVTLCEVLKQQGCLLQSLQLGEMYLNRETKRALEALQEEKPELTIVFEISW", "assay": "Inhibition of NLRP3 inflammasome activation in LPS-primed mouse J774.A1 cells assessed as inhibition of release of IL-1 beta preincubated for 1 hr followed by nigericin stimulation and measured after 1 hr by ELISA", "assay_type": "cell-based", "conditions": "dose 7.5-60 nM, time 2.0 hrs, DDE = dose-dependent effect"}, "[11]": {"molecular_target": "NLR family CARD domain-containing protein 4 (Mus musculus) (UniProt Q3UP24)", "sequence (Q3UP24 whole entry, the tested form may be a part)": "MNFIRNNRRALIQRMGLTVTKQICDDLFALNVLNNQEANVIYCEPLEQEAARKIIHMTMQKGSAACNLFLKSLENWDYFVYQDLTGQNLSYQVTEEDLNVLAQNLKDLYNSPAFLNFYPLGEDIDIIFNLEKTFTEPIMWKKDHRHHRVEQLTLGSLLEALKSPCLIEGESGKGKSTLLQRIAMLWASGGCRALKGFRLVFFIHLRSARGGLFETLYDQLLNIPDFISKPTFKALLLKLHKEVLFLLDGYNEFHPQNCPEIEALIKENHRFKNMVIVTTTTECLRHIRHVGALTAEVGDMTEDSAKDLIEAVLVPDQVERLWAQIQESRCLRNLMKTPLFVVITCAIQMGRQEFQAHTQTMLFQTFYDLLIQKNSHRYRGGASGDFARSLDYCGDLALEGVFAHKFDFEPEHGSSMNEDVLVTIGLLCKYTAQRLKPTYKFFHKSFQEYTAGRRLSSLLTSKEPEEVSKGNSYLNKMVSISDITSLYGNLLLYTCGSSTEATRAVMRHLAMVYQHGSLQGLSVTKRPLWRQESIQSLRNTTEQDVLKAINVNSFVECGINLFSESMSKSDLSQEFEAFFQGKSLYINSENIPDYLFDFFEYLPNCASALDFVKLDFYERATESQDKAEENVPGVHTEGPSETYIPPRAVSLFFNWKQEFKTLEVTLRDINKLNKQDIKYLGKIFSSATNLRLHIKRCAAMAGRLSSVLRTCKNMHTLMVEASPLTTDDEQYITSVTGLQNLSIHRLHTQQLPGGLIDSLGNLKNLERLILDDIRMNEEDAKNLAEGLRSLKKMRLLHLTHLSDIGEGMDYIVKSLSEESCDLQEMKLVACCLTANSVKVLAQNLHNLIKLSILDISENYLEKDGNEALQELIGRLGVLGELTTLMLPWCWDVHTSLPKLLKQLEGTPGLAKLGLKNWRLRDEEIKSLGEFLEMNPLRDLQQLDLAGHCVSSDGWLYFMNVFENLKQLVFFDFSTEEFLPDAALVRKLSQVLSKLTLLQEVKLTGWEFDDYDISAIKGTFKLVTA", "assay": "Inhibition of NLRC4 inflammasome activation in LPS-primed mouse BMDM cells assessed as reduction in IL-1beta secretion at 7.5 to 60 nM preincubated for 1 hr followed by poly (dA/dT) stimulation by ELISA", "assay_type": "cell-based", "conditions": "dose 7.5-60 nM"}, "HEK293": {"tested_on": "HEK293", "assay": "Cytotoxicity against HEK293 cells at less than 20 uM incubated for 24 hrs", "assay_type": "toxicity, cell-based", "conditions": "human, hek293, 24 h"}, "Mus musculus [12]": {"tested_on": "Mus musculus", "assay": "Protection against DSS-induced acute colitis in C57BL/6 mouse model assessed as improvement in goblet cell depletion at 0.125 to 0.5 mg/kg, po administered for 10 days by Hematoxylin and eosin staining based analysis", "assay_type": "functional, organism-based", "conditions": "dose 0.125-0.5 mg/kg, time 10.0 day"}, "Mus musculus [13]": {"tested_on": "Mus musculus", "assay": "Anti-colitis activity against DSS-induced ulcerative colitis C57BL/6J mouse model assessed as suppression of DSS induced weight loss at 0.125 to 0.5 mg/kg, po administered every 72 hrs for 10 days", "assay_type": "functional, organism-based", "conditions": "dose 0.125-0.5 mg/kg, time 10.0 day"}, "[14]": {"molecular_target": "NACHT, LRR and PYD domains-containing protein 3 (Mus musculus) (UniProt Q8R4B8)", "assay": "Inhibition of NLRP3 inflammasome activation in LPS-primed mouse J774.A1 cells assessed as inhibition of IL-1 beta release in supernatant preincubated for 1 hr followed by nigericin stimulation measured after 1 hr by Western blot analysis", "assay_type": "cell-based", "conditions": "dose 7.5-60 nM, time 2.0 hrs, DDE = dose-dependent effect"}, "[15]": {"molecular_target": "T2, Apoptosis-associated speck-like protein containing a CARD (Mus musculus) (UniProt Q9EPB4)", "T2 sequence (whole entry)": "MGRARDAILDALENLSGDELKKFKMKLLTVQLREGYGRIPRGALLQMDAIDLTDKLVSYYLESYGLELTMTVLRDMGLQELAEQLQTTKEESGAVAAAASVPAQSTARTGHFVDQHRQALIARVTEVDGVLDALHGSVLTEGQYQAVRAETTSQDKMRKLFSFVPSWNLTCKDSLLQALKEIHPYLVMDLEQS", "assay": "Inhibition of ASC oligomerization in LPS stimulated mouse J774A.1 cells preincubated for 1 hr followed by nigericin stimulation by immunoblot analysis", "assay_type": "cell-based", "conditions": "J774.A1, dose 15-60 nM, DDE = dose-dependent effect"}, "Mus musculus [16]": {"tested_on": "Mus musculus", "assay": "Protection against DSS-induced C57BL/6 mouse ulcerative colitis model assessed as reduction in NLRP3 level in colon at 0.125 to 0.5 mg/kg, po by Western blot analysis", "assay_type": "functional, organism-based", "conditions": "dose 0.125-0.5 mg/kg"}, "[17]": {"molecular_target": "NACHT, LRR and PYD domains-containing protein 3 (Mus musculus) (UniProt Q8R4B8)", "assay": "Inhibition of NLRP3 inflammasome activation in LPS-stimulated mouse J774.A1 cells assessed as blockage of NLRP3-ASC protein-protein interaction at 15 to 60 nM preincubated for 1 hr followed by nigericin stimulation by co-immunoprecipitation assay", "assay_type": "cell-based", "conditions": "dose 15-60 nM"}, "[18]": {"assay": "Half life in Sprague-Dawley rat at 1 mg/kg, po measured upto 24 hrs by liquid chromatography tandem mass spectrometry", "assay_type": "ADME, organism-based", "conditions": "in vivo"}, "[19]": {"assay": "Oral bioavailability in Sprague-Dawley rat at 1 mg/kg measured upto 24 hrs by liquid chromatography tandem mass spectrometry", "assay_type": "ADME, organism-based", "conditions": "in vivo"}, "J774.A1 [20]": {"tested_on": "J774.A1", "assay": "Inhibition of NF-kappaB in LPS treated mouse J774.A1 cells assessed as reduction in pro-IL-1beta expression at 7.5 to 60 nM incubated for 1 hr followed by LPS stimulation measured after 5 hrs by Western blot analysis", "assay_type": "cell-based", "conditions": "dose 7.5-60 nM, time 6.0 hrs"}, "[21]": {"molecular_target": "NACHT, LRR and PYD domains-containing protein 3 (Mus musculus) (UniProt Q8R4B8)", "assay": "Inhibition of NLRP3 inflammasome activation in LPS-primed mouse BMDM cells assessed as reduction in IL-1 beta release preincubated for 1 hr followed by nigericin stimulation and measured after 1 hr by ELISA", "assay_type": "cell-based", "conditions": "dose 7.5-60 nM, time 2.0 hrs, DDE = dose-dependent effect"}, "[22]": {"molecular_target": "NLR family CARD domain-containing protein 4 (Mus musculus) (UniProt Q3UP24)", "assay": "Inhibition of NLRC4 inflammasome activation in LPS-primed mouse BMDM cells assessed as reduction in IL-1beta secretion at 7.5 to 60 nM preincubated for 1 hr followed by FLA-ST Ultrapure stimulation by ELISA", "assay_type": "cell-based", "conditions": "dose 7.5-60 nM"}, "Mus musculus [23]": {"tested_on": "Mus musculus", "assay": "Protection against DSS-induced C57BL/6 mouse ulcerative colitis model assessed as reduction in pro-IL-1 beta level in colon at 0.125 to 0.5 mg/kg, po by Western blot analysis", "assay_type": "functional, organism-based", "conditions": "dose 0.125-0.5 mg/kg"}, "[24]": {"assay": "Cmax in Sprague-Dawley rat at 1 mg/kg, po measured upto 24 hrs by liquid chromatography tandem mass spectrometry", "assay_type": "ADME, organism-based", "set-up": "dose 1 mg/kg, time < 24 hrs, route po", "conditions": "in vivo"}}, "note": "Active and inactive are the calls of the source. The rule behind the calls is not given here."}
{"compound": "CC(C)C[C@H](NC(=O)[C@H](Cc1ccccc1)NC(=O)c1c(F)cccc1F)B(O)O", "values": [{"measurement": "Activity", "setting": "Mus musculus [1]", "result": "Active"}, {"measurement": "inhibition", "setting": "J774.A1 [2]", "result": "Active"}, {"measurement": "Activity", "setting": "Mus musculus [3]", "result": "Active"}, {"measurement": "inhibition", "setting": "[4]", "result": "Active"}, {"measurement": "clearance", "setting": "[5]", "result": 18.8, "unit": "mL/min/kg"}, {"measurement": "Cmax", "setting": "[6]", "result": 377, "unit": "ng/mL"}, {"measurement": "AUC", "setting": "[7]", "result": 489.2, "unit": "ng·h/mL"}, {"measurement": "Activity", "setting": "Mus musculus [8]", "result": "Active"}, {"measurement": "Tmax", "setting": "[9]", "result": 0.25, "unit": "h"}, {"measurement": "inhibition", "setting": "[10]", "result": "Dde"}, {"measurement": "inhibition", "setting": "[11]", "result": "Active"}, {"measurement": "Activity", "setting": "HEK293", "result": "Non-Toxic"}, {"measurement": "Activity", "setting": "Mus musculus [12]", "result": "Active"}, {"measurement": "Activity", "setting": "Mus musculus [13]", "result": "Active"}, {"measurement": "inhibition", "setting": "[14]", "result": "Dde"}, {"measurement": "inhibition", "setting": "[15]", "result": "Dde"}, {"measurement": "Activity", "setting": "Mus musculus [16]", "result": "Active"}, {"measurement": "inhibition", "setting": "[17]", "result": "Active"}, {"measurement": "t1/2", "setting": "[18]", "result": 8.36, "unit": "h"}, {"measurement": "bioavailability", "setting": "[19]", "result": 48.1, "unit": "%"}, {"measurement": "inhibition", "setting": "J774.A1 [20]", "result": "Active"}, {"measurement": "inhibition", "setting": "[21]", "result": "Dde"}, {"measurement": "inhibition", "setting": "[22]", "result": "Active"}, {"measurement": "Activity", "setting": "Mus musculus [23]", "result": "Active"}, {"measurement": "Cmax", "setting": "[24]", "result": 208, "unit": "ng/mL"}]}
